Source: PMC8141582, “Synergistic Effect of Statins and Abiraterone Acetate on the Growth Inhibition of Neuroblastoma via Targeting Androgen Receptor” (Frontiers in Oncology, 2021)

Assays:
[1] = test system: NB cells; design: method as in PMID 28326012; conditions: cited from earlier work; for proliferation, migration, invasion, and sphere formation of NB cells: AR antagonists, hormone-free medium
[2] = test system: PC-3 cells; design: key to Results (abiraterone acetate alone): Positive: Abiraterone acetate alone inhibited the progression of cancer; Negative: Abiraterone acetate could not inhibit the progression of cancer; conditions: Prostate Cancer, 98.0 mg/kg/day, oral; ref Supplement [28]; cited from earlier work
[3] = test system: SK-N-BE (2) cells; assay: MTT cell viability assay, SK-N-BE (2); assay type: cell-based; conditions: Homo sapiens, SKNBE2, NB cell line, 72 h
Procedure: (§1) N2a, SH-SY5Y, SK-N-BE (2), 10A, HUVEC, HL7702 cells were plated in 96-well plates at 8,000 cells/well, respectively, in complete media in triplicate wells for each dose and cultured for 18 h. The neuroblastoma cell lines, N2a, SH-SY5Y, and SK-N-BE (2), and non-cancer cell lines, 10A, HUVEC, and HL7702, were treated with simvastatin and fluvastatin in a range of doses from 0 to 20 μM and with AA from 0 to 30 μM; N2a, SH-SY5Y SK-N-BE (2), were treated with rosuvastatin in a range of doses from 0 to 100 μM for 72 h. Statins dissolved in DMSO and AA dissolved in ethanol. After 72 h treatment, the medium was added 0.5 mg/ml MTT reagent and incubated at 37°C for 4 h. Subsequently, the supernatant was aspirated, and cells were lysed in 150 µl DMSO, then shaken 10 min at 37°C. The optical density (OD) was measured at 570 and 630 nm using a plate reader.

[4] = test system: LNCaP cells; design: method as in Supplement [30]; key: Positive: Abiraterone acetate alone inhibited the progression of cancer; Negative: Abiraterone acetate could not inhibit the progression of cancer; conditions: Prostate Cancer, 3.5 mg/kg/day, i.p.; ref Supplement [30]; cited from earlier work
[5] = test system: SH-SY5Y xenografts; assay: SH-SY5Y tumor xenograft study; assay type: in vivo, BALB/c nude mice; conditions: AA 150 mg/kg, oral daily
Text: Four weeks old BALB/c nude mice of both sexes were purchased from Vital River Laboratory Animal Technology Co., Ltd. (Beijing, China) and maintained under specific pathogen-free conditions. Male mice were castrated 5 days before cell inoculation. […] Then, all the mice were divided randomly into four groups: control group (Placebo, n = 7), simvastatin group (Sim, n = 6), abiraterone acetate group (AA, n = 6), and combination group (Com, n = 6) including three male mice in each group. […] AA 150 mg/kg/day; combined simvastatin 10 mg/kg/day with AA 75 mg/kg/day. Tumor was harvested after 10 days of dosing, then fixed half of a tumor in 4% buffered formaldehyde for IHC and the other half was stored −80°C for RT-PCR and Western Blots analysis.

[6] = test system: SH-SY5Y cells; assay: MTT cell viability assay, SH-SY5Y; assay type: cell-based; conditions: Homo sapiens, NB cell line, 72 h
Procedure: as §1

[7] = test system: Caki2 cells; design: method as in Supplement [32]; key: Positive: Abiraterone acetate alone inhibited the progression of cancer; Negative: Abiraterone acetate could not inhibit the progression of cancer; conditions: Renal Cell Carcinoma, 195.8 mg/kg/day, i.p.; ref Supplement [32]; cited from earlier work
[8] = test system: N2a cells; assay: MTT cell viability assay, N2a; assay type: cell-based, mouse; conditions: for IC50: Mus musculus, N2a, NB cell line, MTT, 72 h
Procedure: as §1

[9] = test system: HUVEC cells; assay: MTT cell viability assay, HUVEC; assay type: cell-based; conditions: Homo sapiens, normal cell line, 72 h
Procedure: (§2) Statins dissolved in DMSO and AA dissolved in ethanol. After 72 h treatment, the medium was added 0.5 mg/ml MTT reagent and incubated at 37°C for 4 h. Subsequently, the supernatant was aspirated, and cells were lysed in 150 µl DMSO, then shaken 10 min at 37°C. The optical density (OD) was measured at 570 and 630 nm using a plate reader.

[10] = test system: MDA-MB-453 cells; design: method as in Supplement [31]; key: Positive: Abiraterone acetate alone inhibited the progression of cancer; Negative: Abiraterone acetate could not inhibit the progression of cancer; conditions: Breast Cancer, 285.7 mg/kg/day, oral; ref Supplement [31]; cited from earlier work
[11] = test system: 22RV1 cells; design: key to Results (abiraterone acetate alone): Positive: Abiraterone acetate alone inhibited the progression of cancer; Negative: Abiraterone acetate could not inhibit the progression of cancer; conditions: Prostate Cancer, 200.0 mg/kg, oral; ref Supplement [29]; cited from earlier work
[12] = test system: HL7702 cells; assay: MTT cell viability assay, HL7702; assay type: cell-based; conditions: Homo sapiens, L02, normal cell line, 72 h
Procedure: as §2

[13] = test system: 10A cells; assay: MTT cell viability assay, 10A; assay type: cell-based; conditions: Homo sapiens, normal cell line, 72 h
Procedure: as §2

| IC50 [3] [µM] | IC50 [6] [µM] | SMILES | proliferation, migration, invasion, and sphere formation of NB cells [1] | IC50 [8] [µM] | IC50 [9] [µM] | IC50 [12] [µM] | IC50 [13] [µM] | further results |
| --- | --- | --- | --- | --- | --- | --- | --- | --- |
| 9.86 | 2.72 | CC(=O)O[C@H]1CC[C@@]2(C)C(=CC[C@@H]3[C@@H]2CC[C@]2(C)C(c4cccnc4)=CC[C@@H]32)C1 [Abiraterone acetate] | – | 4.32 | 22.6 | 5.31 | 5.2 | Results (abiraterone acetate alone) [2]: Positive; Results (abiraterone acetate alone) [4]: Positive; tumor growth [5]: tumor growth delay; Results (abiraterone acetate alone) [7]: Positive; inhibition rate ([8]; N2a cells, 2.5 μM AA): ~20%; Results (abiraterone acetate alone) [10]: Negative; Results (abiraterone acetate alone) [11]: Negative |
| 8.41 | 6 | CC(C)n1c(/C=C/C(O)CC(O)CC(=O)O)c(-c2ccc(F)cc2)c2ccccc21 (stereo not shown) [Fluvastatin] | – | 5.09 | 8.96 | 29.7 | 13.3 | – |
| 67.6 | > 100 | CC(C)c1nc(N(C)S(C)(=O)=O)nc(-c2ccc(F)cc2)c1/C=C/[C@@H](O)C[C@@H](O)CC(=O)O [Rosuvastatin] | – | 68.4 | – | – | – | – |

The remaining lines, values behind:

| SMILES | IC50 [3] [µM] | IC50 [6] [µM] | proliferation, migration, invasion, and sphere formation of NB cells [1] | IC50 [8] [µM] | IC50 [9] [µM] | IC50 [12] [µM] | IC50 [13] [µM] | further results |
| --- | --- | --- | --- | --- | --- | --- | --- | --- |
| CNC(=O)c1ccc(N2C(=S)N(c3cnc(C#N)c(C(F)(F)F)c3)C(=O)C23CCC3)cc1F [ARN509] | – | – | significantly decreased | – | – | – | – | – |
| CNC(=O)c1ccc(N2C(=S)N(c3ccc(C#N)c(C(F)(F)F)c3)C(=O)C2(C)C)cc1F [MDV3100] | – | – | significantly decreased | – | – | – | – | – |
| C[C@]1(O)CC[C@H]2[C@@H]3CCC4=CC(=O)CCC4=C3C=C[C@@]21C [R1881] | – | – | – | – | – | – | – | growth of NB ([1]; AR agonist, in vitro and in vivo): promoted the growth of NB in vitro and in vivo |
